Tests used:
Experiment in all cases: Steady-State Inhibition Assay
Details in all cases: pH 7.4
[1] = target: T1, Quinone-dependent D-lactate dehydrogenase (Escherichia coli (strain K12), UniProt P06149)
T1 sequence (P06149 whole entry): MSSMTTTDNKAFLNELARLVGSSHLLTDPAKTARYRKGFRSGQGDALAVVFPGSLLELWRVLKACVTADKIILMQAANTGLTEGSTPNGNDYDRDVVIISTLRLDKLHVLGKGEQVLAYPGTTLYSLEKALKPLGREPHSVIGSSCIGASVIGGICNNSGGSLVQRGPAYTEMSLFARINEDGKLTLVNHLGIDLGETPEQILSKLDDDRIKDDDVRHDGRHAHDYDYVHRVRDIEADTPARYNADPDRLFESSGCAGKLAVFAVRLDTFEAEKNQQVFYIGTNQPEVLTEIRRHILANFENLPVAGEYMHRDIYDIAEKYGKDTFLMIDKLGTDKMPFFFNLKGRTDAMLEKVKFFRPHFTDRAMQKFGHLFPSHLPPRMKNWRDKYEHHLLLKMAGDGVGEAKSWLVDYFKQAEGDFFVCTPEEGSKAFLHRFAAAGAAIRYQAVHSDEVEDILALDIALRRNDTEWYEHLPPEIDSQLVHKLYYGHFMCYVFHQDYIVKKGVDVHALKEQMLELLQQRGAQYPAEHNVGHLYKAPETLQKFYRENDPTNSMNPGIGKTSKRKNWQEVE
Description: (§1) All reactions were monitored spectrophotometrically at 340 nm by using initial rates from the first 5% of reaction.

[2] = target: T2, 1-deoxy-D-xylulose 5-phosphate reductoisomerase (Escherichia coli (strain K12), UniProt P45568)
T2 sequence (P45568 whole entry): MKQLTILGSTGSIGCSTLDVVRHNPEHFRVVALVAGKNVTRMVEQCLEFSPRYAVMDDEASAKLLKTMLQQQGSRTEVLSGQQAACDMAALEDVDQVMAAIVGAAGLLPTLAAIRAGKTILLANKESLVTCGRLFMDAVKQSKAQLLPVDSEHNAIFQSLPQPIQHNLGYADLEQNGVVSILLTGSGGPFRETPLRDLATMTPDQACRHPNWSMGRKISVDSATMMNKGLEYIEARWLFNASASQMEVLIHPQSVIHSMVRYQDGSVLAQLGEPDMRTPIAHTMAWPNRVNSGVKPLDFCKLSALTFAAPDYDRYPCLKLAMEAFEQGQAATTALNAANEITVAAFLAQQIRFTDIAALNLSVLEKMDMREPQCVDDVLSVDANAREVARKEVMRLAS
Description: as §1

[3] = target: 4-hydroxy-tetrahydrodipicolinate reductase (Escherichia coli (strain K12), UniProt P04036)
Description: as §1

Sequence of 4-hydroxy-tetrahydrodipicolinate reductase (P04036 whole entry): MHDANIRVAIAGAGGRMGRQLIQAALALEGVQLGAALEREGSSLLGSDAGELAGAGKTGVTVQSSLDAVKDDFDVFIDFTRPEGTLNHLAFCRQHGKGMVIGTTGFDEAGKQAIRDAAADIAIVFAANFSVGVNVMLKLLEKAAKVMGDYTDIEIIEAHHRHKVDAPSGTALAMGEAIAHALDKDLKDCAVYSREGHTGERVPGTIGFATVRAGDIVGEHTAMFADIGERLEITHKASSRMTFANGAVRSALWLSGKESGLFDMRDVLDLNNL

`O=C(CN1C(=O)/C(=C/c2ccc(O)c(O)c2)SC1=S)NCCSc1cc(C(=O)O)nc(C(=O)O)c1` [Bi-ligand, 4] gave a Ki [1] of 0.62 µM, a Ki [2] of 7.9 µM and a Ki [3] of 0.1 µM.

For `O=C(O)CN1C(=O)/C(=C/c2ccc(O)c(O)c2)SC1=S` [Bi-ligand, 1], the Ki [1] was 55 µM, the Ki [2] was > 50 µM and the Ki [3] was 0.026 µM.

For `Cc1ccc(Oc2ccc(NC(=O)CN3C(=O)/C(=C/c4ccc(O)c(O)c4)SC3=S)cc2)cc1` [Bi-ligand, 3], the Ki [1] was 12 µM, the Ki [2] was 0.202 µM and the Ki [3] was > 25 µM.

In the case of `O=C(CCCCN1C(=O)/C(=C/c2ccc(O)c(O)c2)SC1=S)NCc1ccc(Cl)c(Cl)c1` [Bi-ligand, 2], the Ki [1] is reported as 0.042 µM, the Ki [2] is reported as 10 µM and the Ki [3] is reported as > 50 µM.

— BindingDB's records for doi:10.1016/j.chembiol.2004.02.012 (Triad Therapeutics, 2004)
